Assay results reported in US20150119398A1, “FORM 2 POLYMORPH OF 7-(TERT-BUTYL-D9)-3-(2,5-DIFLUOROPHENYL)-6-((1-METHYL-1H-1,2,4-TRIAZOL-5-YL)METHOXY)-[1,2,4]TRIAZOLO[4,3-B]PYRIDAZINE” (Concert Pharmaceuticals Inc., priority 2012, published 2015).

Columns and labels:
[1] = Dynamic Vapor Sorption (DVS) analysis; type: physicochemical; settings: between 0-90% relative humidity, 25° C.
Method: Dynamic Vapor Sorption (DVS). DVS experiments were conducted on a Surface Measurement Systems DVS-HT at 25° C. The instrument was operated in step mode and the relative humidity was increased in 10% RH increments from 40% RH to 90% RH, then decreased from 90% RH to 0% RH, then increased from 0% RH to 90% RH, then decreased from 90% RH to 0% RH. An extra step at 75% RH was included in each cycle. The mass equilibrium criterion was set at 0.005% change in mass over time (dm/dt) prior to each humidity level. A minimum step time of 10 minutes and a maximum step time of 240 minutes were specified.

[2] = Physical stability of the crystal form on exposure to ambient conditions or elevated humidity; type: physicochemical

[2H]C([2H])([2H])C(c1cc2nnc(-c3cc(F)ccc3F)n2nc1OCc1ncnn1C)(C([2H])([2H])[2H])C([2H])([2H])[2H] [Form 2, 7-(tert-Butyl-d9)-3-(2,5-difluorophenyl)-6-((1-methyl-1H-1,2,4-triazol-5-yl)methoxy)-[1,2,4]triazolo[4,3-b]pyridazine]
weight gain by DVS [1]: up to 2.5 % wt | physical stability at elevated humidity (75% or 95% RH) ([2]; 75% or 95% RH, 5 days): physically stable | physical stability at 75-97% relative humidity ([2]; 75-97% relative humidity, five days): physically stable | physical stability at ambient conditions ([2]; ambient conditions, at least two weeks): physically stable
